{"source": "PubChem BioAssay AID1259338", "about": "(Broad Institute, 2017)", "note": "Activity calls are given as the source filed them.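 How the source made its calls: active means compounds lowering the signal with a fitted AC50 at or below a set concentration limit; inconclusive means flat curve with 30 to 70% inhibition, or a poor fit; inactive means the rest.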", "data": [{"molecular_target": "Caspase recruitment domain-containing protein 9 (Homo sapiens) + E3 ubiquitin-protein ligase TRIM62 (Homo sapiens) (UniProt Q9H257+Q9BVG3)", "sequence (Q9BVG3 whole entry, looked up, the tested form may be a part)": "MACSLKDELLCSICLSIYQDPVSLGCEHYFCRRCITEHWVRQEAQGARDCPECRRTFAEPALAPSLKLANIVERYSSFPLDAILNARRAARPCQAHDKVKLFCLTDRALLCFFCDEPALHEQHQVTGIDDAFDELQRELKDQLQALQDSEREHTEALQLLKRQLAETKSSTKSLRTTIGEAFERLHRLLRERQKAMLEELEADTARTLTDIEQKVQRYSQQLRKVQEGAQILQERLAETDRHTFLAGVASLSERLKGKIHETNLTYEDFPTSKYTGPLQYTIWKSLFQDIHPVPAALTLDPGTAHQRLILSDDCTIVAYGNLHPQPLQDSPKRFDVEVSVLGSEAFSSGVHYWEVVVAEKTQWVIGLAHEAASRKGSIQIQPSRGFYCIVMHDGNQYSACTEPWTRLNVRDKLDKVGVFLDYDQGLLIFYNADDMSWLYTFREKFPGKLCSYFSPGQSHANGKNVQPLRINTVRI", "sequence (Q9H257 whole entry, looked up, the tested form may be a part)": "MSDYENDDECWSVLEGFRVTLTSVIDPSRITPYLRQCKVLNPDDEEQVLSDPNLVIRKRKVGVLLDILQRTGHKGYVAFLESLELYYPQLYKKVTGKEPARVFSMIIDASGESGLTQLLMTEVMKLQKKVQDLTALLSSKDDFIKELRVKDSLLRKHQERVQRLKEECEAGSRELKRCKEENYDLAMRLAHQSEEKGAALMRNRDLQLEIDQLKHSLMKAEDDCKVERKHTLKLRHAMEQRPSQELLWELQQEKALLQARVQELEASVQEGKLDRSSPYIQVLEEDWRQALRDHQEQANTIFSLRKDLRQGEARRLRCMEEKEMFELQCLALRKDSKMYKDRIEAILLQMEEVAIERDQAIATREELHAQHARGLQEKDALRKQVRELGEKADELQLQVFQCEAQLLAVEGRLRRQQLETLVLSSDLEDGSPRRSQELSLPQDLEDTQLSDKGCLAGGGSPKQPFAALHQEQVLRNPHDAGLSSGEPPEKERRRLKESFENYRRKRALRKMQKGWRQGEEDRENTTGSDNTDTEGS", "assay": "disruptors of CARD9-TRIM62 binding, dose response, cell lysate, HEK293FT lysates, Luminex bead readout (AID 1259338); on activity change, negative = inhibition: reference of the scale not given here", "settings": "Luminex bead PPI, MFI", "values": [{"smiles": "COc1c(C(=O)O)csc1Br", "AC50": "29.6 µM"}, {"smiles": "COc1ccc(S(=O)(=O)c2ccccc2)cc1NS(=O)(=O)c1cccc(C(=O)O)c1", "AC50": "> 160 µM (inactive)"}, {"smiles": "NC(=O)C1(N2CCCCC2)CCN(c2ccc(NC(=O)c3cccc(Cl)c3)cc2C(=O)O)CC1", "AC50": "14.8 µM"}, {"smiles": "Cc1ccccc1C(=O)Nc1cnc(N2CCC(C(N)=O)(N3CCCCC3)CC2)c(C(=O)O)c1", "AC50": "7.55 µM"}, {"smiles": "COc1ccc(S(=O)(=O)N2CCOCC2)cc1NC(=O)c1cccc(-n2cccc2)c1", "AC50": "77.6 µM"}, {"smiles": "Cc1c(C(=O)OCC2CCCO2)[nH]c2c1C(=O)CC(c1ccco1)C2", "note": "(stereo not given)", "AC50": "> 160 µM (inactive)"}, {"smiles": "O=[N+]([O-])c1cccc(-c2nnc3ccc4ccccc4n23)c1", "AC50": "80.2 µM"}, {"smiles": "N#Cc1c(N)oc(-c2ccco2)c1-c1ccco1", "AC50": "> 160 µM (inactive)"}, {"smiles": "CCCN1CCCn2nc(CNC(=O)[C@H]3CC[C@@H](N)C3)cc2C1", "AC50": "23 µM"}, {"smiles": "COc1ccc(NC(=O)CN(C)C(=O)c2cc(-c3ccco3)nc3ccccc23)cc1", "AC50": "78.2 µM"}, {"smiles": "O=C(NCc1ccco1)c1c2c(nc3ccccc13)CCC2", "AC50": "> 160 µM (inactive)"}, {"smiles": "c1cn(CCc2noc(C3CCCC3)n2)c(-c2cc3n(n2)CCCNC3)n1", "AC50": "53.7 µM"}, {"smiles": "NC(=O)c1ccc(CN2C(=O)C3(CCNCC3)Nc3ccccc32)cc1", "AC50": "> 160 µM (inactive)"}, {"smiles": "O=C(Nc1ccc2oc(-c3ccncc3)nc2c1)c1ccc2c(c1)OCO2", "AC50": "41.8 µM"}, {"smiles": "O=C(CN1CCOC1=O)N1CCC2(CCC(=O)N(CCCn3ccnc3)C2)CC1", "AC50": "> 160 µM (inactive)"}, {"smiles": "NC(=O)C1(N2CCCCC2)CCN(c2ncc(NC(=O)c3cccs3)cc2C(=O)O)CC1", "AC50": "21.3 µM"}, {"smiles": "O=C(NCC1CCCO1)c1cc(-c2ccco2)nc2ccccc12", "note": "(stereo not given)", "AC50": "> 160 µM (inactive)"}, {"smiles": "Cc1ncnc(N2CCC(c3nccn3Cc3cccnc3)CC2)c1C", "AC50": "> 160 µM (inactive)"}, {"smiles": "O=C(NCCc1ccccc1)c1cc2cccnc2n(Cc2ccccc2)c1=O", "AC50": "> 160 µM (inactive)"}, {"smiles": "CC1=CCC(C(=O)O)C(C(=O)NC2CCCCC2)C1", "note": "(stereo not given)", "AC50": "83.4 µM"}, {"smiles": "CC(=O)c1ccc(NC(=O)c2noc3c2CCC3)cc1", "AC50": "> 160 µM (inactive)"}, {"smiles": "O=C(Nc1ccc(OCC(=O)N2CCOCC2)cc1)c1cncc(Br)c1", "AC50": "42.1 µM"}, {"smiles": "C[C@H](CO)N1C[C@H](C)[C@@H](CN(C)CC2CCCCC2)OCCCC[C@H](C)Oc2ccc(NS(C)(=O)=O)cc2C1=O", "AC50": "28.9 µM"}, {"smiles": "NC(=O)C1(N2CCCCC2)CCN(c2ncc(NC(=O)c3ccc(Cl)cc3)cc2C(=O)O)CC1", "AC50": "6.01 µM"}, {"smiles": "C=CC(=O)N1CCCC2(CCN(CCN3CCCC3)C2=O)C1", "note": "(stereo not given)", "AC50": "1.53 µM"}, {"smiles": "NC(=O)C1(N2CCCCC2)CCN(c2ccc(NC(=O)c3ccccc3F)cc2C(=O)O)CC1", "AC50": "42 µM"}, {"smiles": "O=C(O)c1ccc2nc(-c3ccco3)c(-c3ccco3)nc2c1", "AC50": "34.7 µM"}, {"smiles": "O=C(NC1CC1)c1cc(-c2ccco2)nc2ccccc12", "AC50": "> 160 µM (inactive)"}, {"smiles": "Cc1ccc(Nc2nc(C(=O)Nc3ccc(Cl)cc3)nc3ccccc23)cc1", "AC50": "22.9 µM"}, {"smiles": "CCCN1CCCn2nc(CNC(=O)[C@@H](N)Cc3ccc(O)cc3)cc2C1", "AC50": "27.8 µM"}, {"smiles": "Cc1ccc(-c2nnc(-c3nc(Nc4nc5ccccc5s4)c4ccccc4n3)o2)cc1", "AC50": "42.1 µM"}, {"smiles": "NC(=O)C1(N2CCCCC2)CCN(c2ncc(NC(=O)c3ccccc3)cc2C(=O)O)CC1", "AC50": "3.25 µM"}, {"smiles": "COCC(=O)N1CCCC2(CCN(CCN3CCCC3)C2=O)C1", "note": "(stereo not given)", "AC50": "> 160 µM (inactive)"}, {"smiles": "O=C1CC2(CCN(C(=O)Nc3ccccc3)CC2)CN1Cc1ccc(Cl)cc1", "AC50": "68.7 µM"}, {"smiles": "Cc1ccc(C(=O)Nc2cnc(N3CCC(C(N)=O)(N4CCCCC4)CC3)c(C(=O)O)c2)cc1", "AC50": "8.64 µM"}]}, {"molecular_target": "Caspase recruitment domain-containing protein 9 (Homo sapiens) + E3 ubiquitin-protein ligase TRIM62 (Homo sapiens) (UniProt Q9H257+Q9BVG3)", "assay": "disruptors of CARD9-TRIM62 binding, dose response, cell lysate, HEK293FT lysates, Luminex bead readout (AID 1259338)", "settings": "Luminex bead PPI, MFI, at 38 µM (top of the series)", "values": [{"smiles": "CCC12CCCN3CCc4c(n(c5ccccc45)C(O)(C(=O)OC)C1)C32", "note": "(stereo not given)", "activity change, negative = inhibition": "inactive"}, {"smiles": "COc1ccc(NC(=O)c2nc(Nc3ccccc3)c3ccccc3n2)cc1", "activity change, negative = inhibition": "inactive"}]}, {"molecular_target": "Caspase recruitment domain-containing protein 9 (Homo sapiens) + E3 ubiquitin-protein ligase TRIM62 (Homo sapiens) (UniProt Q9H257+Q9BVG3)", "assay": "disruptors of CARD9-TRIM62 binding, dose response, cell lysate, HEK293FT lysates, Luminex bead readout (AID 1259338)", "settings": "Luminex bead PPI, MFI, at 80 µM (top of the series)", "values": [{"smiles": "CC1(C)Cc2c(c(N3CCOCC3)nc3sc(C(=O)NCc4ccco4)c(N)c23)CO1", "activity change, negative = inhibition": "inactive"}, {"smiles": "O=C(Nc1nc(-c2nc3ccccc3s2)cs1)c1ccco1", "activity change, negative = inhibition": "inactive"}, {"smiles": "CCC1c2ccc(C)n2CCN1C(=O)Nc1ccccc1C(=O)OC", "note": "(stereo not given)", "activity change, negative = inhibition": "inactive"}, {"smiles": "CCOc1cc2c(C#N)c(N3CCNCC3)nc(N)c2c(N)n1", "activity change, negative = inhibition": "inactive"}, {"smiles": "CCc1nc(OCc2ccco2)c2sc3nc4c(cc3c2n1)COC(C)(C)C4", "activity change, negative = inhibition": "inactive"}, {"smiles": "CCCC(=O)NCc1ccc2c(c1)cc(C)n2C", "activity change, negative = inhibition": "inactive"}, {"smiles": "O=C(CC1Nc2ccccc2OC1=O)Nc1ccc(Cl)cc1", "note": "(stereo not given)", "activity change, negative = inhibition": "inactive"}, {"smiles": "N#Cc1c2c(c(NCc3ccco3)n3c1nc1ccccc13)CCC2", "activity change, negative = inhibition": "inactive"}, {"smiles": "O=C(O)c1cc(-c2ccco2)nc2ccccc12", "activity change, negative = inhibition": "inactive"}, {"smiles": "Nc1c2c(nc3ccccc13)CCN(Cc1ccccc1)C2", "activity change, negative = inhibition": "inactive"}, {"smiles": "CCOc1ccc(CNc2nc(-c3nnc(-c4ccc(F)cc4)o3)nc3ccccc23)cc1", "activity change, negative = inhibition": "inactive"}, {"smiles": "O=C(COC(=O)c1cc(-c2ccco2)nc2ccccc12)NCc1ccccc1", "activity change, negative = inhibition": "inactive"}, {"smiles": "O=C(CCn1cncn1)N1CCC(n2cc(-c3ccccn3)nn2)CC1", "activity change, negative = inhibition": "inactive"}, {"smiles": "N#CCSc1nc2c(c(=O)n1Cc1ccco1)C1(CCCC1)Cc1ccccc1-2", "activity change, negative = inhibition": "inactive"}, {"smiles": "O=S(=O)(Nc1nccs1)c1ccc(-n2cccc2)cc1", "activity change, negative = inhibition": "inactive"}, {"smiles": "COc1ccc(N2CC3=C(N2)c2ccccc2CC3)cc1", "activity change, negative = inhibition": "inactive"}, {"smiles": "O=C(Nc1ccc2c(c1)nc1n2CCN(C2CCCCC2)C1)c1ccco1", "activity change, negative = inhibition": "inactive"}, {"smiles": "CC(C)=CCC(C#N)(CC=C(C)C)C(=O)O", "activity change, negative = inhibition": "inactive"}, {"smiles": "On1c(-c2ccco2)nc2c1CCc1nonc1-2", "activity change, negative = inhibition": "inactive"}, {"smiles": "CCOC(=O)/C=C/S(=O)(=O)c1ccc(NC(C)=O)cc1", "activity change, negative = inhibition": "inactive"}, {"smiles": "N#Cc1c(NC(=O)CSc2nc3ccccc3o2)sc2c1CCC2", "activity change, negative = inhibition": "inactive"}, {"smiles": "Nc1cc2c(cc1-n1cccc1)OCCO2", "activity change, negative = inhibition": "inactive"}, {"smiles": "Cc1sc2ncnc(SCc3ccco3)c2c1C", "activity change, negative = inhibition": "inactive"}, {"smiles": "CC(C)(C)c1ccc(-c2nc(C#N)c(NCc3ccncc3)o2)cc1", "activity change, negative = inhibition": "inactive"}, {"smiles": "CCc1cc2c(=O)n(Cc3ccco3)c(SC)nc2s1", "activity change, negative = inhibition": "inactive"}, {"smiles": "Cc1scc(C(=O)NCc2ccco2)c1-c1ccccc1", "activity change, negative = inhibition": "inactive"}, {"smiles": "COCCCNC(=O)C1CCN(c2ccc(N3CCOCC3)nn2)CC1", "activity change, negative = inhibition": "inactive"}, {"smiles": "Cc1ccc(C2CC(=O)C3=C(C2)Nc2ccccc2NC3c2cccnc2)cc1", "note": "(stereo not given)", "activity change, negative = inhibition": "inactive"}, {"smiles": "O=C(Nc1ccc2oc(-c3cccnc3)nc2c1)c1ccc2c(c1)OCCO2", "activity change, negative = inhibition": "inactive"}, {"smiles": "O=C(Nc1cccc2nsnc12)c1ccc(-c2cccc(Cl)c2)o1", "activity change, negative = inhibition": "inactive"}, {"smiles": "N#Cc1c(-c2ccco2)cc(-c2cccnc2)nc1N", "activity change, negative = inhibition": "inactive"}, {"smiles": "O=C(Nc1ncccc1O)c1ccc(OCC2CCCO2)cc1", "note": "(stereo not given)", "activity change, negative = inhibition": "inactive"}, {"smiles": "CC(=O)c1sc2nc(-c3ccco3)ccc2c1N", "activity change, negative = inhibition": "inactive"}, {"smiles": "Cc1ccc(C)n1NC(=O)c1ccccc1O", "activity change, negative = inhibition": "inactive"}, {"smiles": "O=C(NC(Sc1ncccn1)C(=O)c1ccccc1)c1ccccc1", "note": "(stereo not given)", "activity change, negative = inhibition": "inactive"}, {"smiles": "O=S(=O)(Nc1nc2ccccc2nc1NCc1ccco1)c1ccccc1", "activity change, negative = inhibition": "inactive"}, {"smiles": "CCN(CCNC(=O)C1CCN(S(=O)(=O)c2c(C)noc2C)CC1)c1ccccc1", "activity change, negative = inhibition": "inactive"}, {"smiles": "Cn1cccc1CNCCCSc1ncccn1", "activity change, negative = inhibition": "inactive"}, {"smiles": "CCCN1CCc2nc(SCc3nc(-c4ccc(OC)cc4OC)oc3C)[nH]c(=O)c2C1", "activity change, negative = inhibition": "inactive"}, {"smiles": "O=C(COC(=O)c1ccccc1Oc1ccccc1)NCc1ccco1", "activity change, negative = inhibition": "inactive"}, {"smiles": "C(=C\\c1ccco1)/c1nc2ccccc2[nH]1", "activity change, negative = inhibition": "inactive"}, {"smiles": "CC(CCc1ccco1)N(C)S(=O)(=O)c1ccc2[nH]c(=O)ccc2c1", "note": "(stereo not given)", "activity change, negative = inhibition": "inactive"}, {"smiles": "C(=N\\n1cnnc1SCc1ccccc1)/c1ccco1", "activity change, negative = inhibition": "inactive"}, {"smiles": "Clc1ccc2nc(CN3CCCCCC3)cn2c1", "activity change, negative = inhibition": "inactive"}, {"smiles": "Cc1ccc(-c2nc(C)sc2CC(=O)NCc2ccco2)cc1", "activity change, negative = inhibition": "inactive"}, {"smiles": "Cc1oc(CSCc2cc(C(=O)O)c(C)o2)cc1C(=O)O", "activity change, negative = inhibition": "inactive"}, {"smiles": "Fc1ccc(CSc2nnc(-c3cccnc3)n2Cc2ccco2)cc1", "activity change, negative = inhibition": "inactive"}, {"smiles": "N#Cc1sc2nc(-c3ccccc3)cc(-c3ccco3)c2c1N", "activity change, negative = inhibition": "inactive"}, {"smiles": "CN(Cc1ccco1)S(=O)(=O)c1nnc(NC(=O)c2ccccc2)s1", "activity change, negative = inhibition": "inactive"}, {"smiles": "O=S(=O)(Nc1nc2ccc(S(=O)(=O)N3CCCCC3)cc2s1)c1ccccc1", "activity change, negative = inhibition": "inactive"}, {"smiles": "Cc1c(/C=C/c2nc3ccccc3c(=O)n2-c2ccccn2)c2ccccc2n1C", "activity change, negative = inhibition": "inactive"}, {"smiles": "C[C@H](CO)N1C[C@H](C)[C@@H](CN(C)C(=O)C2CCCCC2)OCCCC[C@H](C)Oc2ccc(NS(C)(=O)=O)cc2C1=O", "activity change, negative = inhibition": "inactive"}, {"smiles": "C[C@H](CO)N1C[C@H](C)[C@@H](CN(C)C(=O)C2CCCCC2)OCCCC[C@H](C)Oc2ccc(NS(=O)(=O)c3cccs3)cc2C1=O", "activity change, negative = inhibition": "inactive"}, {"smiles": "CCCOc1ccc(CCC(=O)O)cc1", "activity change, negative = inhibition": "inactive"}, {"smiles": "O=C(Cn1cncc1-c1ccc([N+](=O)[O-])cc1)Nc1ccccc1F", "activity change, negative = inhibition": "inactive"}, {"smiles": "Cc1cc(C)c2c(N)c(C(=O)Nc3cccc4ccccc34)sc2n1", "activity change, negative = inhibition": "inactive"}, {"smiles": "COC[C@]1(O)CCN(C(=O)CCN(C)S(C)(=O)=O)CC1(C)C", "activity change, negative = inhibition": "inactive"}, {"smiles": "O=C(N/N=C/C=C/c1ccco1)c1cncc(Br)c1", "activity change, negative = inhibition": "inactive"}]}]}
